Assay results: publication PMC8281026, “Peptide Based Inhibitors of Protein Binding to the Mitogen-Activated Protein Kinase Docking Groove” (Frontiers in Molecular Biosciences, 2021)

Legend:
HEK-293T cells [1] = assay: Cellular uptake by fluorescence microscopy; type: cell-based; settings: fluorescence microscopy
Protocol: (§1) The cellular uptake of the fluorescent labeled peptide into HEK-293T cells were analyzed by fluorescence microscopy (Cytation 3, BioTek Instruments) and two peptides were further examined by confocal laser scanning microscopy (Zeiss LSM-710 system). Cells were incubated with peptides in serum-free medium (DMEM) for 3 h at 37 °C and then washed twice with 200 μl of serum-free medium before analyzing.

[2] = test system: ERK1/2 phosphorylation in HEK-293T cells; assay: ERK phosphorylation level in cells by Western-blot after EGF stimulation; type: cell-based; settings: pre-treated 20 μM, 5 h, EGF 100 ng/ml
Protocol: To study the effect of peptides on the ERK pathway EGF stimulation and Western-blot analysis were used. HEK-293T cells were plated on 48-well plate and were serum-starved for overnight. Then cells were treated with the Cf-peptide at 20µM for 5 h in 100 μL DMEM and then stimulated by addition of EGF (Sigma, E9644) in 100 ng/mL concentration. Stimulation was terminated at different time points by adding 35 μL 4× SDS loading buffer. Cells were lysed and 10 μL of each sample was subjected to SDS-PAGE. […] The intensities of the protein bands were determined by densitometry and monitored after the stimulation in time. […] Activated (i.e., phosphorylated) ERK and p38 were detected by phospho-p44/42 MAPK (ERK1/2) (see above) and phospho-p38 MAPK (Thr180/Tyr182) rabbit primary antibody (Cell Signaling, #9215) in 1:2000 dilution, respectively. The total ERK and p38 content of the samples were determined by anti-p44/42 MAPK (ERK1/2) mouse primary antibody and anti-p38α MAPK mouse mAb (Cell Signaling, #9228), respectively. […] As secondary antibody anti-rabbit antibody (IRDye® 800CW Goat anti-Rabbit IgG, #926-32211) in 1:5,000 and secondary anti-mouse antibody (IRDye® 680CW Goat anti-Mouse IgG, #926-68070 in 1: 10,000 were used. Protein bands were detected and quantified with LI-COR Odyssey® Clx infrared imaging system. Statistical analysis was done using two-sided independent Student’s t-test.

HL-60 cells [3] = assay: Cellular uptake by flow cytometry; type: cell-based, human; settings: for fluorescence intensity relative to peptide 9: 90 min, HL-60, flow cytometry, trypsin treated
Protocol: (§2) To study the cellular uptake of fluorescent labeled peptides and conjugate by flow cytometry, 10^5 HL-60 cells per well were plated on 24-well plates and were incubated for 24 h at 37°C. Then cells were treated with the solution of compounds in serum-free media for 90 min. The cellular uptake was analysed at 1, 5 and 10 µM concentrations. Cells treated with serum-free media were the control. At the end of incubation, treatment solutions were removed, and the cells were treated with 100 μL trypsin for 2 min to remove the membrane proteins in order to eliminate non-specific binding of conjugates. The effect of trypsin was terminated by 900 μL HPMI containing 10% fetal calf serum, and the cell suspensions were transferred into FACS-tubes. After centrifugation at 216g at 4°C for 5 min the supernatant was removed. Then cells were resuspended in 500 µl HPMI, and the intracellular fluorescence intensity of HL-60 cells was monitored (on channel FITC LP505; emission at λ = 505 nm; LP 505, BP 530/30) by flow cytometry (BD LSR II, BD Bioscience, San Jose, CA, equipped with 488 nm; Coherent Sapphire, 22 mW laser.) which is proportional to the cellular uptake. Data were analysed with FACSDiVa 5.0 software. Statistical analysis was done using two-sided independent Student’s t-test.

HL-60 cells [4] = assay: Percent of live cells by flow cytometry; type: cell-based, human; settings: 10 µM, 90 min, serum-free media, HL-60, three independent measurements
Protocol: as §2

HEK-293T cells [5] = assay: Intracellular distribution by confocal laser scanning microscopy; type: cell-based; settings: 10 and 20 µM, 3 h
Protocol: as §1

| number of live cells (HL-60 cells [4]) [%] | Substance | internalization of the conjugate into HEK-293T cells (HEK-293T cells [1]; after 5 h of treatment at 5 µM (Figure 4 legend: 20 μM, 5 h)) | amount of phosphorylated ERK [2] | fluorescence intensity relative to peptide 9 (HL-60 cells [3]; 1 µM) [times] | fluorescence intensity relative to peptide 9 (HL-60 cells [3]; 5 µM) [times] | fluorescence intensity relative to peptide 9 (HL-60 cells [3]; 10 µM) [times] | internalization compared to the peptide without the Dabcyl-group (HL-60 cells [3]; at different concentrations) | internalization into HEK-293T cells (HEK-293T cells [1]; serum-free medium, 37 °C, up to 3 h, Figure 1) | intracellular distribution (HEK-293T cells [5]) |
| --- | --- | --- | --- | --- | --- | --- | --- | --- | --- |
| – | Cf-SLQRKKPPWLKLDIPSC(CH2-CO-RRRRRRRR-NH2)-NH2 [compound 3, Cf-labeled octaarginine conjugate] | showed internalization | some reduction | – | – | – | – | – | – |
| 40 | Dabcyl-RRRPPWLRLDIRRK(Cf)-NH 2 [compound 11] | – | – | 9.2 | 23.5 | 16.9 | 10–24 times | increased the peptide internalization | more diffuse distribution |
